This note sets out measurements from patent US20240239801A1, “PYRIMIDO[5,4,D]PYRIMIDINE COMPOUNDS, COMPOSITIONS COMPRISING THEM AND USES THEREOF” (Université de Montréal, priority 2021, published 2024).

Like-named read-outs stand apart in the source and are kept apart here.

In general, EC50 refers to the concentration needed to bring the measured effect to its halfway point. Usually IC50 stands for the concentration that inhibits the measured activity by half.

What all share (format): cell-based, human
In one assay the test system is IPC298. As to the kind of experiment: Proliferation inhibition, CellTiter-Glo. The note with it: Table D-1, 3 days, read-out: IPC298 Prolif. EC50. The method, then: (§1) All cancer cell lines (A375, A101D, A2058, RKO, HT29 SK-MEL 30, IPC298, HepG2, HCT-116, Lovo, SW620, SW480, NCI-H358, NCI-H2122, Calu-6, NCIH2087, NCIH1755, NCIH1666 and Mewo) were obtained from ATCC and cultured in RPMI-1640 medium (Gibco) supplemented with 5% heat inactivated fetal bovine serum (FBS, Wisent) at 37° C. under 5% CO2. Cells were maintained in T175 flasks (Greiner). They were passaged by removing the culture medium, washing once in 10 mL of room temperature Phosphate Buffered Saline (PBS; Wisent) and incubating at 37° C. with 2 mL of 0.05% Trypsin (Thermo-Fisher). Trypsin was then inactivated by adding complete growth medium and the cells were then replated in a T175 culture dish at the appropriate dilution. All cell lines were routinely tested for mycoplasma contamination. Tissue type and mutational status of each cell line can be found in Table B.
(§2) CellTiter-Glo® viability analysis was conducted on cells plated in […] of complete RPMI-1640 growth medium in 96-well flat-bottomed white opaque plates (Greiner or Corning) at a density indicated in Table E (for each CCL, number of cells plated per well of a 96-well plate to perform the CellTiter-Glo® cell viability assay). The cell density in cells/cm^2 would correspond to cell number divided by the area of one well of a 96-well plate (0.32 cm^2). Cells were maintained overnight at 37° C. under 5% CO2 before treatment with compounds' dilution series for 3 days.
(§3) In a dilution series 100 μL/well of test substance dilution prepared in complete RPMI-1640 growth media was added to the cells plated initially in 100 μL of growth media. The dilution series is selected so that ten concentrations cover a range from 30 μM or 10 μM to […]. If necessary (as in the case of A375 cells, which were more sensitive to the compounds) the initial concentration of 10 μM is lowered to 1 μM and further dilution is carried out accordingly. The final concentration of DMSO in the assay is set to 0.5%.
(§4) After 3 days of incubation, the growth media were removed by aspiration and 60 μL of diluted CellTiter-Glo® reagent (10 μL CellTiter-Glo® reagent+50 μL of PBS) was added to each well. Cells were allowed to lyse and to equilibrate in CellTiter-Glo® reagent by 5 min incubation on a plate shaker followed by 10 min incubation at room temperature. Luminescence signals were then acquired on a Synergy Neo2 plate reader (Biotek).
(§5) The effect of each compound dilution on the proliferation of cancer cell lines was expressed in % inhibition and calculated as follows. An internal 100% inhibition control (1 μM of trametinib; cat. No. HY-10999; MedChem Express; CAS No. 871700-17-3) was included in each plate and used as a measure of CellTiter-Glo® signal background. The value obtained for trametinib was subtracted from each data point. The average of DMSO (vehicle) controls (set as 0% inhibition) was established and used to calculate % inhibition:
(§6) The ability of each compound to inhibit proliferation was expressed as a EC50 value obtained by plotting the effect values for each data point of a dilution series and fitting the obtained curves using a log(agonist) versus response−variable slope (four parameters) function using GraphPadPrism (V7.0) or Dotmatics Screening Ultra platform.

The next assay relates to SW620. As to the kind of experiment: Proliferation inhibition, CellTiter-Glo. Particulars: Table D-2, 3 days, read-out: SW620 Prolif. EC50. The method, then:
as §1, §2, §3, §4, §5, §6

The subject of a further assay is NCI-H358. Description: Proliferation inhibition, CellTiter-Glo. The note with it: Table D-2, 3 days, read-out: NCI-H358 Prolif. EC50. The protocol: as §1, §2, §3, §4, §5, §6
For orientation: ATP-based viability assays read luminescence as a measure of living cells.

A further assay concerns RKO. Description: Proliferation inhibition, CellTiter-Glo. The note with it: Table D-1, 3 days, read-out: RKO Prolif. EC50. The protocol: as §1, §2, §3, §4, §5, §6
For another assay, the system named is HT-29. Description: Proliferation inhibition, CellTiter-Glo. Particulars: Table D-1, 3 days, read-out: HT-29 Prolif. EC50. The method, then: as §1, §2, §3, §4, §5, §6
A further assay concerns HCT116 pERK. Description: Phospho-ERK inhibition, AlphaLISA SureFire Ultra p-ERK 1/2. Particulars: for HCT116 pERK, value in parentheses, % inhibition: % Ymin of pERK IC50 curve; for HCT116 (Ymin %): lowest value of the pERK IC50 curve. In short, it runs like this: (§7)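 IC50 derived by four-parameter fitting of % inhibition, with DMSO as 0% and 1 μM trametinib subtracted as background. Signal is AlphaLISA p-ERK1/2 (Thr202/Tyr204) in lysates of overnight-seeded cells (RPMI-1640, 5% FBS) treated 1 h with ten concentrations from 30 or 10 μM to 0.33 nM, 0.5% DMSO.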
For orientation: In Alpha technology, singlet oxygen from a donor bead excites a nearby acceptor bead.

The next assay concerns SW480 pERK. Described as above. Particulars: for SW480 pERK, value in parentheses, % inhibition: % Ymin of pERK IC50 curve; for SW480 (Ymin %): lowest value of the pERK IC50 curve. In short, it runs like this: as §7
Setting [1] is: Homo sapiens, HCT-116, Table D-1.
Where [2] appears, read: Homo sapiens, SW480, Table D-2, read-out: SW480 pERK IC50.
The mark [3] stands for this setting: Table 3, 1 h treatment, read-out: SW480 PERK IC50.
Setting [4] is: Table D-2, read-out: SW480 pERK IC50.

Consider `Cc1ccc2c(Nc3cccc(Cl)c3F)nccc2c1NC(=O)c1csc2c(N)ncnc12` [Belvarafenib, reference compound], for which the EC50 was below 300 nM with IPC298 (Homo sapiens, IPC-298, 72 h); 300 to 3000 nM with SW620 (Homo sapiens, SW-620, 72 h); 300 to 3000 nM in the assay with NCI-H358 (Homo sapiens, NCI-H358, 72 h); below 300 nM in the assay on RKO (Homo sapiens, RKO, 72 h); below 300 nM in the assay on HT-29 (Homo sapiens, HT-29, 72 h). For the same compound, the concentration for half-maximal inhibition (IC50) in the assay with HCT116 pERK (setting [1]) and in the assay on SW480 pERK (setting [2]) was 30 to 300 nM throughout. Moreover, the “HCT116 pERK, value in parentheses, % inhibition” value (shortened to “HCT116 pERK … % inhibition”) with HCT116 pERK (Table D-1) is recorded as “(−46) %”. The “SW480 pERK, value in parentheses, % inhibition” value (from here on “SW480 pERK, value … % inhibition”) in the assay on SW480 pERK (Table D-2) is recorded as “(−100) %”.

For the compound `Nc1cccc2c1ncn2-c1ncc2ncnc(Nc3c(F)ccc(NS(=O)(=O)c4cccc(Cl)c4Cl)c3F)c2n1` [Example 80], the 50% inhibitory concentration (IC50) is below 500 nM with HCT116 pERK (Table 3, 1 h treatment) and below 500 nM in the assay with SW480 pERK (setting [3]). Further, in the assay on HCT116 pERK (Table 3), the “HCT116 (Ymin %)” value was −7%. Moreover, the “SW480 (Ymin %)” value in the assay with SW480 pERK (Table 3) was −2%.

On to `Cc1c(F)cccc1S(=O)(=O)Nc1ccc(F)c(Nc2ncnc3cnc(-n4cc(C(=O)N(C)Cc5ccncc5)c5ccccc54)nc23)c1F` [Example 98], for which the EC50 in the assay on IPC298 is below 300 nM; with SW620, 300 to 3000 nM; in the assay with NCI-H358, below 300 nM; in the assay with RKO, below 300 nM; in the assay on HT-29, below 300 nM. In the assay on HCT116 pERK (Table 3), the “HCT116 (Ymin %)” value is on record as “(−6.0) %”. For the same compound, the IC50 in the assay on HCT116 pERK (Table D-1) is 30 to 300 nM; in the assay with SW480 pERK (setting [3]), below 500 nM; with SW480 pERK (setting [4]), 30 to 300 nM. Moreover, in the assay on HCT116 pERK (Table D-1), the “HCT116 pERK … % inhibition” value is given as “(−6.0) %”. In addition, the “SW480 (Ymin %)” value with SW480 pERK (Table 3) is −1%. Further, the “SW480 pERK, value … % inhibition” value in the assay with SW480 pERK (Table D-2) was “(−1) %”.

`COc1ccc(S(=O)(=O)Nc2ccc(F)c(Nc3ncnc4cnc(-n5cnc6c(N)cccc65)nc34)c2F)c(C)c1Cl` [Example 112]: the EC50 with SW620 was 300 to 3000 nM; with NCI-H358, below 300 nM; with RKO, below 300 nM; in the assay with HT-29 it was below 300 nM. Also, the IC50 is 500 to 1000 nM in the assay with HCT116 pERK (Table 3, 1 h treatment); above 300 nM in the assay with HCT116 pERK (Table D-1); below 500 nM in the assay on SW480 pERK (setting [3]); 30 to 300 nM in the assay with SW480 pERK (setting [4]). Further, in the assay on HCT116 pERK (Table 3), the “HCT116 (Ymin %)” value is reported as −0.8%. Besides, the “HCT116 pERK … % inhibition” value in the assay with HCT116 pERK (Table D-1) is reported as “(−0.8) %”. For the same compound, the “SW480 (Ymin %)” value in the assay on SW480 pERK (Table 3) was −7%. Further, the “SW480 pERK, value … % inhibition” value in the assay on SW480 pERK (Table D-2) is “(−7) %”.

In the case of `Cc1c(F)cccc1S(=O)(=O)Nc1ccc(F)c(Nc2ncnc3cnc(-n4cnc5c(-c6cccnc6)cccc54)nc23)c1F` [Example 114], the EC50 in the assay on IPC298 (Homo sapiens, IPC-298, 72 h) was below 300 nM; with SW620 (Homo sapiens, SW-620, 72 h), above 3000 nM; with NCI-H358 (Homo sapiens, NCI-H358, 72 h), below 300 nM; with RKO (Homo sapiens, RKO, 72 h), below 300 nM; in the assay on HT-29 (Homo sapiens, HT-29, 72 h), below 300 nM. Further, the IC50 in the assay with HCT116 pERK (Homo sapiens, HCT-116, Table 3, 1 h treatment) is below 500 nM; in the assay on HCT116 pERK (setting [1]), above 300 nM; in the assay on SW480 pERK (Homo sapiens, SW480, Table 3, 1 h treatment, read-out: SW480 PERK IC50), below 500 nM; in the assay with SW480 pERK (setting [2]), 30 to 300 nM. Also, in the assay on HCT116 pERK (Table D-1), the “HCT116 pERK … % inhibition” value is “(−4.9) %”. In the assay with SW480 pERK (Table 3), the “SW480 (Ymin %)” value is listed as 2%. Also, the “SW480 pERK, value … % inhibition” value in the assay on SW480 pERK (Table D-2) was “(1) %”.

Consider `O=S(=O)(Nc1ccc(F)c(Nc2ncnc3cnc(-n4cnc5c(N6CCC7(CCCO7)CC6)cccc54)nc23)c1F)c1cccc(Cl)c1Cl` [Example 129], for which the EC50 is below 300 nM in the assay on IPC298; 300 to 3000 nM in the assay with SW620; below 300 nM in the assay on NCI-H358; below 300 nM in the assay on RKO; below 300 nM in the assay on HT-29. In addition, the IC50 is below 500 nM in the assay on HCT116 pERK (Table 3, 1 h treatment); 30 to 300 nM with HCT116 pERK (Table D-1); below 500 nM in the assay on SW480 pERK (setting [3]); 30 to 300 nM in the assay on SW480 pERK (setting [4]). Further, in the assay on HCT116 pERK (Table 3), the “HCT116 (Ymin %)” value is listed as −8%. In the assay with HCT116 pERK (Table D-1), the “HCT116 pERK … % inhibition” value is given as “(−8) %”. For the same compound, the “SW480 (Ymin %)” value in the assay with SW480 pERK (Table 3) is given as 3%. Further, in the assay with SW480 pERK (Table D-2), the “SW480 pERK, value … % inhibition” value is on record as “(3) %”.
